Measurements as given in patent US4808614A (priority 1987, dated 1989).

Legend:
[1] = tested on: L1210V lymphocytic leukemia; assay: Oncolytic activity in tumor system L1210V lymphocytic leukemia; format: in vivo
[2] = tested on: X5563 plasma cell myeloma; assay: Oncolytic activity in tumor system X5563 plasma cell myeloma; format: in vivo
CA-755 adenocarcinoma = assay: Oncolytic activity in tumor system CA-755 adenocarcinoma; format: in vivo
6C3HED lymphosarcoma = assay: Oncolytic activity in tumor system 6C3HED lymphosarcoma; format: in vivo
[3] = tested on: P1534J lymphatic leukemia; assay: Oncolytic activity in tumor system P1534J lymphatic leukemia; format: in vivo
Herpes simplex, type I = assay: cells; format: cell-based, Herpes simplex virus; settings: Chlorocebus sabaeus, BSC-1, 72 h, read-out: Percent Plaque Inhibition
Pseudorabies Virus = assay: microbe, parasite or virus in culture; format: cell-based; settings: Suid alphaherpesvirus 1, BSC-1, in Chlorocebus sabaeus, 72 h, read-out: Percent Plaque Inhibition

## Nc1ccn(C2O[C@H](CO)[C@@H](O)C2(F)F)c(=O)n1 (some centres unmarked) [Example 8, 1-(2-oxo-4-amino-1H-pyrimidin-1-yl)-2-desoxy-2,2-difluororibose]
[1]
  oncolytic activity: demonstrated activity
[2]
  oncolytic activity: demonstrated activity
CA-755 adenocarcinoma
  oncolytic activity: demonstrated activity
6C3HED lymphosarcoma
  oncolytic activity: demonstrated activity
[3]
  oncolytic activity: demonstrated activity

## Cc1cn(C2O[C@H](CO)[C@@H](O)C2(F)F)c(=O)[nH]c1=O (some centres unmarked) [DFAT, 1-(5-methyl-2,4-dioxo-1H,3H-pyrimidin-1-yl)-2-desoxy-2,2-difluororibose]
Herpes simplex, type I
  inhibition at 0.39 µg/mL: 4%
  inhibition at 0.78 µg/mL: 8%
  inhibition at 1.56 µg/mL: 0%
  inhibition at 3.12 µg/mL: 12%
  inhibition at 6.25 µg/mL: 15%
  inhibition at 12.5 µg/mL: 35%
  inhibition at 25 µg/mL: 53%
  inhibition at 50 µg/mL: 72%
  inhibition at 100 µg/mL: 96%
Pseudorabies Virus
  inhibition at 3 µg/mL: 5%
  inhibition at 6 µg/mL: 6%
  inhibition at 12 µg/mL: 12%
  inhibition at 25 µg/mL: 15%
  inhibition at 50 µg/mL: 18%
  inhibition at 100 µg/mL: 23%
